Experimental data reported in patent publication US20230357292A1, “MULTI-COORDINATE GOLD-PHOSPHINE COMPOUNDS AND METHOD OF USE” (University of Kentucky Research Foundation, priority 2020, published 2023).
“Also recorded” adds a separate entry of the source. Read-outs that look alike come from different tables or passages of the source.

Assays:
[1] = system: 4T1 cells engineered to express RFP; conditions: 10 mg kg−1 day−1, six treatments, thrice a week, compared with controls
Text: Murine TNBC 4T1 cells engineered to express RFP were also subcutaneously injected into flanks of immunocompromised mice in the presence of Matrigel.

[2] = 10 mg kg−1 IV, 1 h and 24 h; heart, lung, liver, spleen, kidney, tumor
Protocol: With four mice inoculated with 4T1 (1,000,000 cells), after 20 days, AuPhos-89 was inserted into mice by IV administration (0.1 mL, 10 mg/kg). Each tissue was obtained by sacrificing the mice (n=2) 1 and 24 hours later. […] The solution turned yellow and diluted as needed to measure the gold content using a Graphite Furnace Atomic Absorption Spectrometer. Before measuring all samples, the standard solution curves were measured.
After respective time points of 1 h and 24 h, mice were euthanized. Organs including heart, lung, liver, spleen, kidney, and tumor were excised and the gold concentration was analyzed by GF-AAS.

[3] = system: 4T1 tumor; assay: In vivo comparative experiment of AuPhos-89 and cisplatin, 4T1, IP; design: species or system BALB/c mice
Protocol: Mice were implanted with 2,000,000 4T1 cells subcutaneously on their flanks. […] The control group was injected with a PBS solution containing 1.5% DMSO and 12% Kolliphor. Injection and tumor-size/body-weight measurement was performed three days a week.
Mice organs (heart, lung, liver, kidney, spleen, and tumor) were fixed in freshly prepared paraformaldehyde (4% in PBS), the fixation time was 24 hours. And those processed for paraffin sectioning. The organs sections of 5 μm were stained with H&E staining and used for histological examination of the organs and tumor. A total of 5 sections per tissues (spanning the full depth of the organ) were examined and photographed using a Nikon Eclipse 55i microscope. […]

[4] = 10 mM in DMSO-d6, 24 h
Protocol: Stock solutions comprised of a 1 mL, 20 mM solution of AuPhos-89 in DMSO-d6. The solution of L-GSH (20 mM) was sonicated for 5 minutes to dissolve the reagent in DMSO-d6. 1 mL of each solution were mixed in a 1:1 ratio to produce a final concentration of 10 mM in DMSO-d6. The solution was then analyzed by 1H NMR spectroscopy. The solution was further analyzed at different time intervals, t=1 h, 6 h, 12 h, and 24 h.

[5] = system: MDA-MB-231 cells; conditions: TMRE or JC-1 assay, short exposure periods
Protocol: MDA-MB-231 cells were plated at a density of 5×10^5 cells/plate in a 6 well plate and allowed to adhere overnight at 37° C. […] The cells were incubated (37° C., 5% CO2) for 1 h at this concentration. Carbonyl cyanide 3-chlorophenylhydrazone (CCCP) was prepared as a stock in DMSO and added at a final concentration of 100 μM, and the cells were treated for 1 h. It was used as a positive control. After the indicated treatment time, a working solution of the JC-1 dye (Cayman Chemicals, Cat. #15003) was prepared by adding 100 μL of dye into 900 μL of DMEM. Note: the working solution of JC-1 should always be prepared fresh and not stored for long-term use. Then, 100 μL/mL of working solution of the JC-1 dye was added to the cells and incubated at 37° C. for 20 minutes. The cells were harvested and resuspended in 2 mL PBS. The cells were analyzed on a flow cytometer with 488 nm excitation and appropriate emission filters. Gated cells, excluded debris and the CCCP-treated sample was used to performed standard compensation.

[6] = system: MDA-MB-231 cells; assay: Western blotting of apoptotic markers and AMPK; conditions: 1 μM, indicated times
Protocol: Furthermore, to determine if AuPhos-89 induces apoptosis through the caspase-mediated apoptotic pathway, western blotting was performed to assess the induction of caspases and cleaved PARP (FIG. 7C). […] Global changes in proteins were investigated using quantitative proteomics after 12 h of exposing MDA-MB-231 cells to AuPhos-89 at 1 μM. In this tandem mass tag (TMT)-based quantification, protein was extracted from cryo-preserved cell pellets and following tryptic digestion, TMT-labeling was performed. After fractionation, tandem LC-MS/MS was conducted and database search against HUMAN protein database was carried out. Proteins of relative quantification were divided into two categories. A quantitative ratio over 1.5 was considered upregulation while a quantitative ratio less than 1/1.5 was considered as downregulation.

[7] = system: MDA-MB-231 cells; conditions: 1 μM; 24 h, 48 h, 72 h
Protocol: MDA-MB-231 cells were seeded at a density of 5×10^5 cells/well in a 6-well clear bottom plate with a final media volume of 2 mL and allowed to adhere overnight 37° C. […] After the desired treatment period, the medium was removed and added to a 15 mL Falcon tube. The wells were washed with 5 mL of PBS and added to the Falcon tube. The cells were trypsinized (1 mL) and added 5 mL of fresh DMEM. All media were combined, and the tube centrifuged at 2000 rpm for 5 minutes to collect the pellet. The medium was decanted, and the pellet suspended in 1 mL of PBS, which was then transferred to a 1 mL Eppendorf tube, centrifuged at 2000 rpm for 5 minutes and suspended in 70% EtOH/PBS solution. These solutions were stored at 4° C. until ready for analysis. […] The cells were washed twice with PBS (1 mL) and suspended in a 50 μL of RNase solution (100 μg/mL) and 200 μL of a 50 μg/mL PI solution. The solutions were then filtered through a 5 mL polystyrene round-bottom tube fit with a cell-strainer cap. The samples were then analyzed with FACS.

[8] = system: 4T1 tumor
Protocol: Female, 5 week-old BALB/c mice were purchased from Charles River Laboratories (Wilmington, MA). All mice were quarantined for 1 week prior to use and kept in micro-isolator cages (four mice per cage) in a temperature- and humidity-controlled environment as per the Division of Laboratory Animal Research (DLAR) of University of Kentucky. All mice were maintained in a pathogen-free environment under the care of DLAR of University of Kentucky. The study was performed in compliance with the NIH guidelines (NIH Publication No. 85-23 Rev. 1985) for the care and use of laboratory animals and all experimental procedures were monitored and approved by the Institutional Animal Care and Use Committee (IACUC) of University of Kentucky (USA).
The control group was injected with a PBS solution containing 1% DMSO and 1% Kolliphor.
A separate group of mice was administered equal volumes of vehicle control at the same time points and via the analogous route.

[9] = system: MDA-MB-231 cells; conditions: 1 μM for 15 h, FACS
Protocol: MDA-MB-231 cells were seeded at a density of 5×10^5 cells/well in a 6-well clear bottom plate with a final media volume of 2 mL. The cells were allowed to adhere overnight at 37° C. A stock of AuPhos-89 was prepared fresh in DMSO/DMEM (% v/v=20:80) and added to the desired well at a concentration of 1 μM with a final volume of 2.5 mL and incubated for 15 h at 37° C. A stock of H2O2 was prepared in PBS and the cells treated at a final concentration of 2 mM for 3 hours and used as positive control. When ready for analysis, medium was removed and the wells washed with 5 mL of PBS. The cells were trypsinized (1 mL), 5 mL of DMEM were added to each well, and total volume collected and centrifuged to pellet the cells. The cells were resuspended in 2 mL of fresh media, counted, and reconstituted to a concentration of 1×10^5 cells/mL. The cells were centrifuged again, and the pellet suspended in 500 μL of Annexin binding buffer. To each sample was added 5 μl of Annexin V-FITC and 5 μl PI and incubated in the dark at room temperature for 5 minutes. The samples were then subjected to FACS analysis.

[10] = 37° C.
Protocol: To determine the stability of gold compounds under physiological conditions in the presence of biological nucleophiles, UV absorbance measurements were conducted over a 24 h time period. Briefly, AuPhos was dissolved in media from a DMSO stock. To this solution was added 10 mM L-glutathione.
To study the stability of the gold(III) compounds in solution, the UV-vis profile of the representative compounds was evaluated in biologically relevant media at physiological temperature of 37° C. Given the common limitation of gold compounds to promiscuously bind thiol containing biomolecules, the interaction of gold(III) complex AuPhos89 was investigated with physiologically relevant concentration of L-glutathione (10 mM) in Dubelcco modified essential medium (DMEM).

[11] = system: MDA-MB-231 cells; conditions: live MDA-MB-231 cells, mito-stress test
Protocol: (§1) Analysis. The initial step of Seahorse XF96 analysis included optimization of the cell density. In this stage, isolated mitochondria (30 μg) or MDA-MB-231 cells were seeded at a range of densities from 2000 cells/well to 100,000 cells/well, followed by optimization of the FCCP injection concentration used (0.6 μM of 1.2 μM). […] All Seahorse XF96 experiments with MDA-MB-231 were performed under these conditions. The cells were seeded the night prior to the experiment with a final volume of 100 μL and incubated overnight at 37° C. AuPhos-89 was prepared as a stock in DMSO/DMEM (% v/v=20:80) and diluted to a working concentration of 100 μM with Seahorse XF96 assay buffer and then subsequently serial diluted by 10× to achieve multiple concentrations. The assay was performed using a pneumatic injection method of AuPhos-89, with the final injection concentrations of 0.01, 0.1, 1, and 10 μM. This was followed by injection of oligomycin (1.5 μM), FCCP (0.6 μM) and rotenone/antimycin A (0.5 μM).

[12] = system: isolated mitochondria from the liver of C57BL/6J mice; conditions: 1 μM, in the presence of oligomycin; dose-dependent up to about 10 μM
Protocol: as §1

[13] = system: MDA-MB-231 (breast); assay: Cell viability, crystal violet assay, MDA-MB-231; assay type: cell-based, human
Text: The plates were washed with water and dried again.

[14] = equimolar glutathione, aqueous solution, 24 h
Protocol: All spectra were recorded using an Agilent Technologies 1100 series HPLC instrument and an Agilent Phase Eclipse Plus C18 column (4.6 mm×100 mm; 3.5 μm particle size). AuPhos-89 and glutathione were prepared as 1 mM stock in DMSO and water, respectively. Equimolar amounts were mixed and the solutions were measured at 0, 1, 3, and 24 h by HPLC. The parameters used in the HPLC were as follows: flow rate, 1 mL/min; λ=280 nm; eluent A=H2O with 0.1% TFA; Eluent B═CH3CN with 0.05% HCOOH; Solvent gradient: 0 min (100:0 H2O:CH3CN), 10 min (0:100 H2O:CH3CN), 15 min (100:0 H2O:CH3CN).

Compound: [Cl-].[Cl][Au-]1([c]2ccccc2-c2ccccn2)[P+](c2ccccc2)(c2ccccc2)c2ccccc2[P+]1(c1ccccc1)c1ccccc1 [AuPhos-89, (2-phenylpyridine)[1,2-Bis(diphenylphosphino)benzene]gold(III) Dichloride]
- tumor growth [1]: significant attenuation of growth
- tissue biodistribution, Au levels in organs [2]: confirmed the uptake
- liver metastasis (H&E sections) ([3]; 4T1 tumor-bearing mice, treated versus control): can inhibit liver metastasis; also recorded: not visible; also recorded: no palpable metastatic lesions
- tumor inhibition compared with the control group ([3]; AuPhos-89 10 mg kg−1 IP, cisplatin 3 mg kg−1 IP): significant tumor inhibition
- body weight ([3]; intraperitoneal administration): kept constant
- survival ([3]; mouse, in vivo, ip): increased rates of survival
- tumor volume ([3]; six treatments, thrice a week, IP, AuPhos-89 10 mg kg−1, cisplatin 3 mg/kg, versus vehicle control): reduced tumor volume
- stability with L-GSH, proton resonances [4]: minimally altered
- mitochondrial membrane potential (MMP) [5]: depolarization of the MMP
- induction of caspases, cleaved PARP and AMPK [6]: activate cleaved caspases, PARP and the cellular energy regulator, AMPK
- cell cycle distribution [7]: no significant changes to the cell cycle
- tumor growth rate ([8]; 10 mg kg−1 IV, 3 weekly injections, n=5, versus vehicle control): decreased significantly
- body weight ([8]; end of the observation period): did not exhibit significant change
- population of cells in early to late apoptosis [9]: ~40%
- stability, UV-vis absorption with L-glutathione ([10]; 10 mM L-glutathione in media (DMEM), 24 h): no alteration to the absorption band
- stability, UV-vis absorption in RPMI-1640 ([10]; RPMI-1640, 24 h): no changes to the absorption spectra
- ATP production [11]: diminished ATP production
- proton leak [11]: acutely induced proton leak
- mitochondrial oxygen consumption rate (OCR) [12]: increased oxygen consumption
- IC50 ([13]; MDA-MB-231 (breast), 4,000 cells/well, treated 72 h, mean ± SD (n = 3)): 450 ± 140 nM
- IC50 ([13]; cell line not stated at the place (structure-activity relationship studies)): 220 nM
- stability with L-GSH, HPLC chromatogram [14]: little change
